According to US20110123617A1, “CLIOQUINOL FOR THE TREATMENT OF HEMATOLOGICAL MALIGNANCIES” (priority 2007, published 2011):

What was measured:
ubiquitinated proteins = experiment: Immunoblotting of ubiquitinated proteins; assay type: cell-based; conditions: leukemia and myeloma cells
Protocol: Effect of increasing concentrations of clioquinol on LP1 and MY5 multiple myeloma cells at twenty hours after clioquinol treatment; determined by SDS-PAGE immunoblotting. To prepare cytosolic extracts, NIH3T3 cells and myeloma cells were washed with phosphate-buffered saline (PBS, pH 7.4) and suspending in lysis buffer [10 mM Tris (pH 7.4), 150 mM NaCl, 0.1% Triton X-100, 0.5% sodium deoxycholate, and 5 mM EDTA] containing protease inhibitors (Complete tablets, Roche, Indianapolis, Ind.). Protein concentrations were determined by the Bradford assay. Immunoblot assays were performed by subjecting equal amounts of protein to SDS-PAGE gels followed by transfer to Nitrocellulose membranes. Membranes were probed with polyclonal rabbit anti-human cyclin D2 (0.5 μg/ml, both from Santa Cruz Biotech, Santa Cruz, Calif.), or monoclonal mouse-anti human p21 (1:200 v/v, Santa Cruz Biotech), monoclonal mouse-anti human p27 (1:2,500 v/v BD Transduction Laboratories), polyclonal mouse-anti human ubiquitin (1:2,000 v/v Calbiochem) and monoclonal mouse-anti-β-actin (1:10,000 v/v) (Sigma, St. Lois, Mo.). Secondary antibodies (Amersham Bioscience UK, Little Chalfont, England) were horseradish peroxidase (HRP)-conjugated goat anti-mouse IgG (1:10,000 v/v) and anti-rabbit (1:5,000 v/v). Detection was performed by the Enhanced Chemical Luminescence (ECL) method (Pierce, Rockford, Ill.).

[1] = test system: chymotrypsin-like activity of the proteasome; experiment: Proteasome activity in cell lysates (Suc-LLVY-AMC cleavage); assay type: biochemical; conditions: cell lysates from leukemia and myeloma cell lines
Protocol: A) Proteasome activity of MDAY-D2 and JJN3 cellular extracts after two hours of treatment with clioquinol (CQ), CuCl2 (Cu), or an equimolar concentration of CQ and Cu. After treatment, the preferential chymotrypsin-like substrate Suc-LLVY-AMC was added and the rate of free AMC was measured over time with a florescent spectrophotometric plate reader (excitation=380 nm, emission=460 nm). B) Proteasome activity of intact MDAY-D2 and JJN3 cells after two hours of treatment with clioquinol (CQ), CuCl2 (Cu), or an equimolar concentration of CQ and Cu. After treatment, the preferential chymotrypsin-like substrate Suc-LLVY-AMC was added and the rate of free AMC was measured over time with a florescent spectrophotometric plate reader (excitation=380 nm, emission=460 nm). […] The chymotrypsin-like activity of the proteasome was measured by incubating equal amounts of protein with the preferential chymotrypsin-like substrate Suc-LLVY-AMC in assay buffer (50 mM Tris-HCl, pH 7.5, 150 mM NaCl) for two hours. After incubation, […] and the rate of free AMC was measured over time with a florescent spectrophotometric plate reader (excitation=380 nm, emission=460 nm). […] The chymotrypsin-like activity of the proteasome was measured by monitoring the rate of cleavage of the fluorescent substrate Suc-LLVY-AMC.

[2] = test system: chymotrypsin-like activity of the proteasome; experiment: Proteasome activity after treatment of intact cell lines; assay type: cell-based; conditions: intact leukemia and myeloma cell lines
Protocol: A) Proteasome activity of MDAY-D2 and JJN3 cellular extracts after two hours of treatment with clioquinol (CQ), CuCl2 (Cu), or an equimolar concentration of CQ and Cu. After treatment, the preferential chymotrypsin-like substrate Suc-LLVY-AMC was added and the rate of free AMC was measured over time with a florescent spectrophotometric plate reader (excitation=380 nm, emission=460 nm). B) Proteasome activity of intact MDAY-D2 and JJN3 cells after two hours of treatment with clioquinol (CQ), CuCl2 (Cu), or an equimolar concentration of CQ and Cu. After treatment, the preferential chymotrypsin-like substrate Suc-LLVY-AMC was added and the rate of free AMC was measured over time with a florescent spectrophotometric plate reader (excitation=380 nm, emission=460 nm). Cellular proteins were extracted from cells with lysis buffer (50 mM HEPES pH 7.5, 150 mM NaCl, 2 mM ATP, and 1% Triton X-100). The chymotrypsin-like activity of the proteasome was measured by incubating equal amounts of protein with the preferential chymotrypsin-like substrate Suc-LLVY-AMC in assay buffer (50 mM Tris-HCl, pH 7.5, 150 mM NaCl) for two hours. After incubation, […] and the rate of free AMC was measured over time with a florescent spectrophotometric plate reader (excitation=380 nm, emission=460 nm). […]

[3] = test system: MDAY-D2 murine leukemia cells
Protocol: DBA-2 mice were injected intraperitoneally with MDAY-D2 murine leukemia cells. Mice were then treated twice daily by oral gavage with clioquinol (100 mg/kg) dissolved in intralipid or intralipid control. Ten days after treatment, mice were sacrificed, the intraperitoneal tumor excised, and the weight and volume of the tumor measured.
MDAY-D2 leukemia cells were injected intraperitoneally into DBA2 mice. Mice were then treated twice daily with oral clioquinol (100 mg/kg) for 10 days. Ten days after treatment, mice were sacrificed and the weight and volume of the intraperitoneal tumor was measured (FIG. 7). […] K562 leukemia cells were injected subcutaneous into sublethally irradiated […] mice. The clioquinol treatment was initiated when tumors reached volumes of 200 mm^3 at which time mice were randomized to receive 100 mg/kg of clioquinol (treated group) or buffer control (untreated group) for 5 of 7 days. Caliper measurements were performed twice weekly to estimate tumor volume and differences compared between treated and untreated groups.

[4] = patients, after oral administration; cited from earlier work

Oc1c(I)cc(Cl)c2cccnc12 [clioquinol, 5-chloro-7-iodo-8-hydroxyquinoline]
amount of ubiquitinated protein (ubiquitinated proteins): increased the amount of ubiquitinated protein
rate of Suc-LLVY-AMC cleavage [1]: inhibited the rate of Suc-LLVY-AMC cleavage
chymotrypsin-like activity of the proteasome [2]: inhibited chymotrypsin-like activity at low micromolar concentrations
tumor progression (weight and volume of intraperitoneal tumor) ([3]; 100 mg/kg oral twice daily for 10 days): delayed tumor progression
tumor weight ([3]; in vivo mouse model of leukemia): dramatically reduces tumor weight
trough serum concentrations [4]: 20 µM
